Data as given in patent US12630565B2, “DNA-dependent protein kinase inhibitor” (DIZAL (JIANGSU) PHARMACEUTICAL CO., LTD., priority 2019, dated 2026).

Key:
Rat hepatocyte = experiment: Metabolic stability assay (rat hepatocyte Clint); format: in vitro ADME; conditions: 1 μM compound, cryopreserved hepatocytes 1 million cells per mL
Procedure, shortened: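 Compound at 1 μM incubated with cryopreserved rat hepatocytes, 1 million cells/mL, sampled 0–120 min with acetonitrile quench and LC-MS/MS quantitation. CLint (μL/min/E6) derived from elimination rate constant and half-life of parent disappearance, scaled by cell concentration.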

[1] = Metabolic stability assay (human microsomal Clint); format: in vitro ADME; conditions: human, pooled human liver microsomes, pH 7.4, 1 μM compound, 1 mg/mL microsomes, 1 mM NADPH, 37° C.
Procedure, shortened: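 Compound (1 μM) incubated at 37 °C with pooled human liver microsomes (1 mg/mL) and 1 mM NADPH in 100 mM phosphate, pH 7.4. Samples quenched in acetonitrile at 0–30 min and analysed by LC-MS/MS for parent loss. CLint reported in μl/min/mg.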

MDR1, BCRP = experiment: MDCKII-MDR1-BCRP efflux assay; format: in vitro ADME; conditions: dog, pH 7.4, 5 μM compound, HBSS pH 7.4, read-out: MDCK-Mdr1-BCRP efflux ratio
Procedure, shortened: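 Bidirectional (A-B, B-A) transport of 5 μM compound across MDCKII-MDR1-BCRP monolayers in HBSS, 25 mM HEPES pH 7.4, ~37° C. for 120 min, triplicate; donor and receiver concentrations measured, monolayer integrity checked with Lucifer yellow. Papp and efflux ratio calculated.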

[2] = target: Full length human DNAPK protein (Homo sapiens, UniProt P78527); experiment: DNA-PK enzymatic assay (TR-FRET); format: biochemical; conditions: 10 μM ATP, 1.6 μM peptide substrate

| Structure (SMILES) | Rat hepatocyte CLint (μl/min/10^−6 cells) (Rat hepatocyte) | microsomal CLint at 1 μM [1] [µL/min/mg] | efflux ratio at 120 min, 5 μM (MDR1, BCRP) | IC50 [2] [nM] |
| --- | --- | --- | --- | --- |
| [2H]C([2H])([2H])n1nc(C2CCOCC2)c2nc(Nc3cn4ncnc4cc3C)ncc21 [Example 10, 1-(methyl-d3)-N-(7-methyl-[1,2,4]triazolo[1,5-a]pyridin-6-yl)-3-(tetrahydro-2H-pyran-4-yl)-1H-pyrazolo[4,3-d]pyrimidin-5-amine] | 6.8 | 17.2 | 7.2 | 1.7 |
| Cc1cc2ncnn2cc1Nc1ncc2c(C)nn([C@H]3C[C@H](C)C3)c2n1 [Example 39, 3-methyl-N-(7-methyl-[1,2,4]triazolo[1,5-a]pyridin-6-yl)-1-((1r,3r)-3-methylcyclobutyl)-1H-pyrazolo[3,4-d]pyrimidin-6-amine] | 153.3 | 151 | 0.9 | 2.1 |
| Cc1cc(-c2nn(C)c3cnc(Nc4cn5ncnc5cc4C)nc23)ccn1 [Example 102, 1-methyl-N-(7-methyl-[1,2,4]triazolo[1,5-a]pyridin-6-yl)-3-(2-methylpyridin-4-yl)-1H-pyrazolo[4,3-d]pyrimidin-5-amine] | 32.0 | 15 | 14 | 0.9 |
| Cc1cc2ncnn2cc1Nc1ncc2c(C)nn(C3CCN(C)CC3)c2n1 [Example 19, 3-methyl-N-(7-methyl-[1,2,4]triazolo[1,5-a]pyridin-6-yl)-1-(1-methylpiperidin-4-yl)-1H-pyrazolo[3,4-d]pyrimidin-6-amine] | 6.8 | 4.3 | 13.1 | 25.9 |
| COCCCn1nc(C)c2cnc(Nc3cn4ncnc4cc3C)nc21 [Example 65, 1-(3-methoxypropyl)-3-methyl-N-(7-methyl-[1,2,4]triazolo[1,5-a]pyridin-6-yl)-1H-pyrazolo[3,4-d]pyrimidin-6-amine] | 13.3 | 17.1 | 2 | 8 |
| Cc1cc2ncnn2cc1Nc1ncc2c(C)nn(C3CCOC(C)C3)c2n1 (single isomer, unassigned) [Example 35, 3-methyl-N-(7-methyl-[1,2,4]triazolo[1,5-a]pyridin-6-yl)-1-(2-methyltetrahydro-2H-pyran-4-yl)-1H-pyrazolo[3,4-d]pyrimidin-6-amine] | 21.7 | 55.4 | 1.7 | 2.8 |
| Cc1cc2ncnn2cc1Nc1ncc2c(C)nn(C3CC4(C3)CC(F)(F)C4)c2n1 [Example 41, 1-(6,6-difluorospiro[3.3]heptan-2-yl)-3-methyl-N-(7-methyl-[1,2,4]triazolo[1,5-a]pyridin-6-yl)-1H-pyrazolo[3,4-d]pyrimidin-6-amine] | 65.5 | 216 | 1.5 | 1.4 |
| CO[C@H]1CC[C@@H](c2nn(C)c3cnc(Nc4cn5ncnc5cc4C)nc32)CC1 [Example 8, 3-((1s,4s)-4-methoxycyclohexyl)-1-methyl-N-(7-methyl-[1,2,4]triazolo[1,5-a]pyridin-6-yl)-1H-pyrazolo[4,3-d]pyrimidin-5-amine] | 20.7 | 234 | 1.7 | 0.7 |
| Cc1nn(C2CCOCC2)c2nc(Nc3cn4ncnc4cc3Cl)ncc12 [Example 16, N-(7-chloro-[1,2,4]triazolo[1,5-a]pyridin-6-yl)-3-methyl-1-(tetrahydro-2H-pyran-4-yl)-1H-pyrazolo[3,4-d]pyrimidin-6-amine] | 11.8 | 26.4 | 0.8 | 8.4 |
| Cc1cc2ncnn2cc1Nc1ncc2c(C)nn(CC(F)F)c2n1 [Example 57, 1-(2,2-difluoroethyl)-3-methyl-N-(7-methyl-[1,2,4]triazolo[1,5-a]pyridin-6-yl)-1H-pyrazolo[3,4-d]pyrimidin-6-amine] | 4.2 | 20.9 | 1.6 | 12.2 |
| COCCn1nc(C)c2cnc(Nc3cn4ncnc4cc3C)nc21 [Example 63, 1-(2-methoxyethyl)-3-methyl-N-(7-methyl-[1,2,4]triazolo[1,5-a]pyridin-6-yl)-1H-pyrazolo[3,4-d]pyrimidin-6-amine] | 5.3 | 5.5 | 2.4 | 36 |
| Cc1cc2ncnn2cc1Nc1ncc2c(C)nn(CC3CCCO3)c2n1 (single isomer, unassigned) [Example 50, 3-methyl-N-(7-methyl-[1,2,4]triazolo[1,5-a]pyridin-6-yl)-1-((tetrahydrofuran-2-yl)methyl)-1H-pyrazolo[3,4-d]pyrimidin-6-amine] | 2.1 | 12.2 | 2.7 | 7 |
| COC1CCC(n2nc(C)c3cnc(Nc4cn5ncnc5cc4C)nc32)C1 (single isomer, unassigned) [Example 108, 1-(3-methoxycyclopentyl)-3-methyl-N-(7-methyl-[1,2,4]triazolo[1,5-a]pyridin-6-yl)-1H-pyrazolo[3,4-d]pyrimidin-6-amine] | 17.2 | 89 | 2 | 1.9 |
| Cc1cc2ncnn2cc1Nc1ncc2c(C)cn(C3CCOCC3)c2n1 [Example 15, 7-methyl-N-(5-methyl-7-(tetrahydro-2H-pyran-4-yl)-7H-pyrrolo[2,3-d]pyrimidin-2-yl)-[1,2,4]triazolo[1,5-a]pyridin-6-amine] | 14.6 | 69.6 | 0.8 | 35.2 |
| COc1ccc(Cn2nc(C)c3cnc(Nc4cn5ncnc5cc4C)nc32)cc1 [Example 18, 1-(4-methoxybenzyl)-3-methyl-N-(7-methyl-[1,2,4]triazolo[1,5-a]pyridin-6-yl)-1H-pyrazolo[3,4-d]pyrimidin-6-amine] | 31.7 | 153 | 1.1 | 2.6 |
| Cc1cc2ncnn2cc1Nc1ncc2c(C)nn(CC3CCOC3)c2n1 (single isomer, unassigned) [Example 52, 3-methyl-N-(7-methyl-[1,2,4]triazolo[1,5-a]pyridin-6-yl)-1-((tetrahydrofuran-3-yl)methyl)-1H-pyrazolo[3,4-d]pyrimidin-6-amine] | 4.9 | 14.1 | 3.2 | 10.8 |
| CO[C@H]1CC[C@@H](n2nc(C)c3cnc(Nc4cn5ncnc5cc4C)nc32)CC1 [Example 25, 1-((1s,4s)-4-methoxycyclohexyl)-3-methyl-N-(7-methyl-[1,2,4]triazolo[1,5-a]pyridin-6-yl)-1H-pyrazolo[3,4-d]pyrimidin-6-amine] | 17.7 | 209 | 1.3 | 1.8 |
